Measured values: patent US20090169538A1, “Methods of Treating or Preventing Tissue Damage Caused by Increased Blood Flow” (REGENERX BIOPHARMACEUTICALS, INC., priority 2006, published 2009)

System: embryonic heart explants
Assay type: cell-based
Conditions: explants in presence of thymosin β4 with 100 nM wortmanin, p<0.05
Source text: To test the effects of secreted thymosin β4 on cardiac cell migration, an embryonic heart explant system designed to assay cell migration and transformation events on a three-dimensional collagen gel was utilized. In this assay, explants of adjacent embryonic myocardium and endocardium from valve-forming regions were placed on a collagen gel with the endocardium adjacent to the collagen.
Outflow tract was dissected from E11.5 wild type mouse embryos and placed on collagen matrices as previously described. After 10 hours of attachment explants were incubated in 30 ng/300 μl thymosin β4 in PBS, PBS alone or thymosin β4 and 100 nM wortmanin. Cultures were carried out for 3-9 days at 37° C. 5% CO2 and fixed in 4% paraformaldehyde in PBS for 10 min at RT. Cells were counted for quantification of migration and distance using at least three separate explants under each condition for endothelial migration and eight separate explants for myocardial migration.
Paraformaldehyde-fixed explants were permeabilized for 10 min at RT with Permeabilize solution (10 mM PIPES pH6.8; 50 mMNaCl; 0.5% Triton X-100; 300 mM Sucrose; 3 mM MgCl2) and rinsed with PBS 2×5 min at RT. After a series of blocking and rinsing steps, detection antibodies were used and explants rinsed and incubated with Equilibration buffer (Anti-Fade kit) 10 min at room temperature. Explants were scooped to a glass microscope slide, covered, and examined by fluorescein microscopy. TUNEL assay was performed using ApopTag Plus Fluorescein In Situ Apoptosis detection kit (Intergen Company # S7111) as recommended.

## COC[C@H]1OC(=O)c2coc3c2[C@@]1(C)C1=C(C3=O)[C@@H]2CCC(=O)[C@@]2(C)C[C@H]1OC(C)=O [wortmanin, reference compound]
  beating frequency upon inhibition of ILK: significant reduction
  myocardial cell migration upon inhibition of ILK: significant reduction
